Assay results published in ChEMBL document CHEMBL1150213, “Protein-tyrosine kinase inhibition: mechanism-based discovery of antitumor agents” (J Nat Prod, 1992).
Values after ≈ are worked out from the molar mass of the structure shown.

Columns and labels:
[1] = biological target: Tyrosine-protein kinase transforming protein Fps (Fujinami sarcoma virus, UniProt P00530); assay: Inhibition of Fujinami sarcoma virus pp130fps
Insulin receptor = Insulin receptor (Homo sapiens, UniProt P06213); assay: Inhibition of insulin receptor
Sequence of Insulin receptor (P06213 28-758 limits assumed): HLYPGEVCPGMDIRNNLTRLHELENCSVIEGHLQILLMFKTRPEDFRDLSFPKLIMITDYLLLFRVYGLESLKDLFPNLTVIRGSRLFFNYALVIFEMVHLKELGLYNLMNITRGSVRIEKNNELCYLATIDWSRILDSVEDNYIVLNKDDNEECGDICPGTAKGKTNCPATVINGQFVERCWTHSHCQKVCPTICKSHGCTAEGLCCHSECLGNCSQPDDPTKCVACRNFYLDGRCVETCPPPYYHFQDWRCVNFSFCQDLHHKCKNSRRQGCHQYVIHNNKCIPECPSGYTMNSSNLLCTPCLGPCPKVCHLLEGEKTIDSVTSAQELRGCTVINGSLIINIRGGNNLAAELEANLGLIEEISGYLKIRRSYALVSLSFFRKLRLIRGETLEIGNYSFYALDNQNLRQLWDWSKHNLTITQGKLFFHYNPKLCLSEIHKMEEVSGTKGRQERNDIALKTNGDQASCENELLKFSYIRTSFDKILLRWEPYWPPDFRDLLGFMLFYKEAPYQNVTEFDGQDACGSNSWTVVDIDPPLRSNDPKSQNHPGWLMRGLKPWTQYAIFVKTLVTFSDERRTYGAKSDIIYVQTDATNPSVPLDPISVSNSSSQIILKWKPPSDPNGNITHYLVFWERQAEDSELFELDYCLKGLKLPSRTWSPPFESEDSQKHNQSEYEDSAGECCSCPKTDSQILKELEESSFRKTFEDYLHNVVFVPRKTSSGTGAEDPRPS
Sequence of Insulin receptor (P06213 763-1382 limits assumed): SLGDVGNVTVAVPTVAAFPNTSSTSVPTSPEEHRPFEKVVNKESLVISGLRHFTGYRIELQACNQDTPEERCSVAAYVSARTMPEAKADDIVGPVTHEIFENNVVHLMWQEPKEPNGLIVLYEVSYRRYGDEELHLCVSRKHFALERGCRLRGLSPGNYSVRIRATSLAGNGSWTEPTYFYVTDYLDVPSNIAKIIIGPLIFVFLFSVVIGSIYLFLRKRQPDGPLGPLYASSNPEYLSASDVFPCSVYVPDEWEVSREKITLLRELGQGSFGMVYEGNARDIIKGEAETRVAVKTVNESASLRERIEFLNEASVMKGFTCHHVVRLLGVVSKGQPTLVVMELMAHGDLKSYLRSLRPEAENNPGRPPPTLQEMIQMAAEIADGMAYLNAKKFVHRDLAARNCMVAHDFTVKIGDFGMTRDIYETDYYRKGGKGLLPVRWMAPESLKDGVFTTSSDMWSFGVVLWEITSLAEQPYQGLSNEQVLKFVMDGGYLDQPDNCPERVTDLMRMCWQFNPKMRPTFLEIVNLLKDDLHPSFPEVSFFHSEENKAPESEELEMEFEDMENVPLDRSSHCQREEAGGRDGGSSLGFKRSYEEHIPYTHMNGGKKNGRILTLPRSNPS

NRK = assay: Growth inhibition of Rous sarcoma virus-transformed rat NRK cells; assay type: cell-based
DMS-273 = assay: Cytotoxicity against human DMS273 cells; assay type: functional
SF-295 = assay: Cytotoxicity against human SF295 cells; assay type: functional
[2] = Cytotoxicity against human 786-O cells; assay type: functional
LOX IMVI = assay: Cytotoxicity against human LOXIMVI cells; assay type: functional
DLD-1 = assay: Cytotoxicity against human DLD1 cells; assay type: functional
SW-620 = assay: Cytotoxicity against human SW620 cells; assay type: functional
[3] = Cytotoxicity against human RXF631 cells; assay type: functional
KM12 = assay: Cytotoxicity against human KM12 cells; assay type: functional
RXF 393 = assay: Cytotoxicity against human RXF393 cells; assay type: functional
MOLT-4 = assay: Cytotoxicity against human MOLT4 cells; assay type: functional, cell-based
SNB-75 = assay: Cytotoxicity against human SNB75 cells; assay type: functional
A498 = assay: Cytotoxicity against human A498 cells; assay type: functional
TK-10 = assay: Cytotoxicity against human TK10 cells; assay type: functional
HCC 2998 = assay: Cytotoxicity against human HCC2998 cells; assay type: functional
SNB-19 = assay: Cytotoxicity against human SNB19 cells; assay type: functional
OVCAR-5 = assay: Cytotoxicity against human OVCAR5 cells; assay type: functional
NCI-H23 = assay: cells; settings: Homo sapiens
Description: Cytotoxicity against human NCI-H23 cells

SR = assay: Cytotoxicity against human SR cells; assay type: functional, cell-based
SN12C = assay: Cytotoxicity against human SN12C cells; assay type: functional
CAKI-1 = assay: Cytotoxicity against human Caki1 cells; assay type: functional
HOP-62 = assay: Cytotoxicity against human HOP62 cells; assay type: functional
SK-MEL-2 = assay: Cytotoxicity against human SK-MEL-2 cells; assay type: functional
U-251 = assay: Cytotoxicity against human U251 cells; assay type: functional
KM-20L2 = assay: Cytotoxicity against human KM20L2 cells; assay type: functional
HL-60(TB) = assay: Cytotoxicity against human HL-60(TB) cells; assay type: functional, cell-based
SK-MEL-28 = assay: Cytotoxicity against human SK-MEL-28 cells; assay type: functional
[4] = Cytotoxicity against human LXFL 529L cells; assay type: functional
OVCAR-4 = assay: Cytotoxicity against human OVCAR4 cells; assay type: functional
CCRF-CEM = assay: Cytotoxicity against human CCRF-CEM cells; assay type: functional, cell-based
NCI-H226 = assay: Cytotoxicity against human NCI-H226 cells; assay type: functional
HOP-18 = assay: Cytotoxicity against human HOP18 cells; assay type: functional
UACC-257 = assay: Cytotoxicity against human UACC257 cells; assay type: functional
SNB-78 = assay: Cytotoxicity against human SNB78 cells; assay type: functional
NCI-H322M = assay: Cytotoxicity against human NCI-H322M cells; assay type: functional
HCT-116 = assay: Cytotoxicity against human HCT116 cells; assay type: functional
COLO 205 = assay: Cytotoxicity against human COLO205 cells; assay type: functional
HT-29 = assay: Cytotoxicity against human HT-29 cells; assay type: functional
SK-MEL-5 = assay: Cytotoxicity against human SK-MEL-5 cells; assay type: functional
NCI-H522 = assay: Cytotoxicity against human NCI-H522 cells; assay type: functional
M14 = assay: Cytotoxicity against human M14 cells; assay type: functional
SK-OV-3 = assay: Cytotoxicity against human SKOV3 cells; assay type: functional
HOP-92 = assay: Cytotoxicity against human HOP92 cells; assay type: functional
HCT-15 = assay: Cytotoxicity against human HCT15 cells; assay type: functional
NCI-H460 = assay: Cytotoxicity against human NCI-H460 cells; assay type: functional
Malme-3M = assay: Cytotoxicity against human MALME-3M cells; assay type: functional
A549 = assay: Cytotoxicity against human A549 cells; assay type: functional
[5] = biological target: Tyrosine-protein kinase Lck (Homo sapiens, UniProt P06239)
Sequence of Tyrosine-protein kinase Lck (P06239 whole entry): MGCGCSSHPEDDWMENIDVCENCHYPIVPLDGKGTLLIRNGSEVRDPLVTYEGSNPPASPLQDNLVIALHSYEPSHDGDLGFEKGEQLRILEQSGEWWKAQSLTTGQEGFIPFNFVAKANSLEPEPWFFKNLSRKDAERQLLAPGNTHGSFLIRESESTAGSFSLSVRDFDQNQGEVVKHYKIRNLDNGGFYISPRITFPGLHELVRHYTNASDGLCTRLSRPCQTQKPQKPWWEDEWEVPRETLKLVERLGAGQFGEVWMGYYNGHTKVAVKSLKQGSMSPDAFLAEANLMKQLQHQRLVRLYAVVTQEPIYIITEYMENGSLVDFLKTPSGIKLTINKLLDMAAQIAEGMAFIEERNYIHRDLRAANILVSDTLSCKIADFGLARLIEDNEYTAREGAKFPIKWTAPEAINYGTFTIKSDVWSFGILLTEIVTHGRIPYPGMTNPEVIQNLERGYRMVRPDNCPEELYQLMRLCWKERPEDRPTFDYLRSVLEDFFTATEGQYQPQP

RPMI-8226 = assay: Cytotoxicity against human RPMI8226 cells; assay type: functional, cell-based
XF498 = assay: Cytotoxicity against human XF498 cells; assay type: functional
SF-268 = assay: Cytotoxicity against human SF268 cells; assay type: functional
DMS-114 = assay: Cytotoxicity against human DMS114 cells; assay type: functional
ACHN = assay: Cytotoxicity against human ACHN cells; assay type: functional
[6] = biological target: Proto-oncogene tyrosine-protein kinase Src (Homo sapiens, UniProt P12931); assay: Inhibition of p60 src
Sequence of Proto-oncogene tyrosine-protein kinase Src (P12931 2-536 limits assumed): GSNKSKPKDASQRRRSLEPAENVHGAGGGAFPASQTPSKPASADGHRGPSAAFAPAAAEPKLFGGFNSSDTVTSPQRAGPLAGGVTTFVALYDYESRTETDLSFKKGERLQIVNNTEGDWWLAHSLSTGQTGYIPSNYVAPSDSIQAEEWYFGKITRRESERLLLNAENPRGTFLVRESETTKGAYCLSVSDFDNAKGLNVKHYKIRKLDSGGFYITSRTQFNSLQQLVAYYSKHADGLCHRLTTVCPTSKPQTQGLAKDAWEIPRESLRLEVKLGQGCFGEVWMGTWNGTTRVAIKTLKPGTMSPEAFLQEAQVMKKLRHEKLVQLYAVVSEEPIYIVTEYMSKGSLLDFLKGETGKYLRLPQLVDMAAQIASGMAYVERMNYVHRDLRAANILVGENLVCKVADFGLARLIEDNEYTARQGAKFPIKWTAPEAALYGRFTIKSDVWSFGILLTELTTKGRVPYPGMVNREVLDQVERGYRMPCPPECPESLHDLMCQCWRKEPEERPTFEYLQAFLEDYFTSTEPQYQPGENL

L1210 [7] = assay: Cytotoxicity against mouse L1210 cells; assay type: functional
[8] = Cytotoxicity against Rous sarcoma virus-infected rat kidney cells; assay type: functional
[9] = biological target: Epidermal growth factor receptor (Homo sapiens, UniProt P00533)
Sequence of Epidermal growth factor receptor (P00533 whole entry): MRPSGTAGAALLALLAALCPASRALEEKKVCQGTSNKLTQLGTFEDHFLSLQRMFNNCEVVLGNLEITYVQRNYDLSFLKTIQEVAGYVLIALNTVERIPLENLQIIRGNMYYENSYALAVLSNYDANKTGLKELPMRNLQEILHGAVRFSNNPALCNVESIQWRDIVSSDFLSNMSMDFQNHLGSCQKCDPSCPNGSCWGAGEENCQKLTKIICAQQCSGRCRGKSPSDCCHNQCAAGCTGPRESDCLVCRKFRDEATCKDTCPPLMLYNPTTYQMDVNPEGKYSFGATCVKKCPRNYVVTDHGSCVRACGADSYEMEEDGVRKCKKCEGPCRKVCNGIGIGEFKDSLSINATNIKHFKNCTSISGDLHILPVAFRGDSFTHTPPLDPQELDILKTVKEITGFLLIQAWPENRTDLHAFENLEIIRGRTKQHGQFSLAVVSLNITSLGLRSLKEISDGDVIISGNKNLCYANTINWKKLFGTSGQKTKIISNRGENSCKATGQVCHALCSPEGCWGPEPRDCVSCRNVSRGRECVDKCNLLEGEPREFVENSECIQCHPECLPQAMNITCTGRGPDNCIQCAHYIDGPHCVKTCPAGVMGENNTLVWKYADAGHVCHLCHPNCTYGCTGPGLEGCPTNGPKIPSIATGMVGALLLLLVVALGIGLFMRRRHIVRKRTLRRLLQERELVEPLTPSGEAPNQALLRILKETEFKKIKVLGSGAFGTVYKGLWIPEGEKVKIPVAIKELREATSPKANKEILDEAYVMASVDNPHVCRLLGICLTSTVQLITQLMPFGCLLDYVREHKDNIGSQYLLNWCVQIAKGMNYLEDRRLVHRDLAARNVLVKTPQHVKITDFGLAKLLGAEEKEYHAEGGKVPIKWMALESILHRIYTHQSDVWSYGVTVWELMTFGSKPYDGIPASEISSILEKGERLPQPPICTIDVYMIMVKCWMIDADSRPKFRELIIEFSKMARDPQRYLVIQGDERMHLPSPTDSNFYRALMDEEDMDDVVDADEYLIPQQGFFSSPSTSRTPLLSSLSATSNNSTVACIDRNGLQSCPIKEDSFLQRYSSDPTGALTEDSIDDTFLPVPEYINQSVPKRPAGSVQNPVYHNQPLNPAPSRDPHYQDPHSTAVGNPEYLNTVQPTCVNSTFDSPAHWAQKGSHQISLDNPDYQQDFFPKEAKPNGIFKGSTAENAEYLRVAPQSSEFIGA

L1210 [10] = assay: Iv vivo cytotoxicity against mouse L1210 cells relative to control in presence of foroxymithine; assay type: functional
A-431 = assay: Cytotoxicity against human A431 cells; assay type: functional
K562 = assay: Cytotoxicity against human K562 cells; assay type: functional, cell-based
[11] = read-out: Log10GI50 (converted)
[12] = read-out: Log10LC50 (converted)

Sequence of Tyrosine-protein kinase transforming protein Fps (P00530 whole entry): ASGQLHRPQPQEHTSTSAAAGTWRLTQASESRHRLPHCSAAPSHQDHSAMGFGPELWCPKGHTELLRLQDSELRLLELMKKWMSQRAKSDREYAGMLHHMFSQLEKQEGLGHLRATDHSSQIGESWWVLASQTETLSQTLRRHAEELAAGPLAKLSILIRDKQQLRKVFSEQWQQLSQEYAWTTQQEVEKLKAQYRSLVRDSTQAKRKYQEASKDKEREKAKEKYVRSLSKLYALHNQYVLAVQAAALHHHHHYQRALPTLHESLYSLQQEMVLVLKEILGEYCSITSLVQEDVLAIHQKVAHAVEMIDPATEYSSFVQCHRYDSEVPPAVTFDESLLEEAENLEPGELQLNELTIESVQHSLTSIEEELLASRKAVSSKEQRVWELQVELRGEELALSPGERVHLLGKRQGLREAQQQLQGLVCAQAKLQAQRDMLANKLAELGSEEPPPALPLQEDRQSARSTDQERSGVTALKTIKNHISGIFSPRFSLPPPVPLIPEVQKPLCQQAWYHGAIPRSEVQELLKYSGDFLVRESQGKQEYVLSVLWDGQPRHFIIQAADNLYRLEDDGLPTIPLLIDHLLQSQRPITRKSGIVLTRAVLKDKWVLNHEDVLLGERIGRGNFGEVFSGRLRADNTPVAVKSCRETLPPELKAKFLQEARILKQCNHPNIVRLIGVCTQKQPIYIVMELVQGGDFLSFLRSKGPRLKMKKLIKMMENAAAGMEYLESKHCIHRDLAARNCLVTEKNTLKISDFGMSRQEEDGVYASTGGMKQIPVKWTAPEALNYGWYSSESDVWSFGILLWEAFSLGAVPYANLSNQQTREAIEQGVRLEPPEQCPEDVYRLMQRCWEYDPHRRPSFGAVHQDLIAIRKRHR

O=c1c(O)c(-c2cc(O)c(O)c(O)c2)oc2cc(O)cc(O)c12 [MYRICETIN]
Ki [1]: 1.8 µM
Ki (Insulin receptor): 2.6 µM

O=c1c(-c2ccc(O)c(O)c2)coc2cc(O)cc(O)c12 [OROBOL]
IC50 (NRK): 4 µg/mL (≈ 14 µM)

Cc1cc(O)c2c(c1)C(=O)c1cc(O)cc(O)c1C2=O [EMODIN]
GI50 (DMS-273; [11]): 20 µM
CC50 (DMS-273; [12]): > 100 µM
GI50 (SF-295; [11]): 28.2 µM
CC50 (SF-295; [12]): > 100 µM
GI50 ([2]; 786-0, read-out: Log10GI50 (converted)): 17.4 µM
CC50 ([2]; 786-0, read-out: Log10LC50 (converted)): > 100 µM
GI50 (LOX IMVI; [11]): 17 µM
CC50 (LOX IMVI; [12]): > 100 µM
GI50 (DLD-1; [11]): 23.4 µM
CC50 (DLD-1; [12]): > 100 µM
GI50 (SW-620; [11]): 23.4 µM
CC50 (SW-620; [12]): > 100 µM
GI50 ([3]; RXF 631, read-out: Log10GI50 (converted)): 22.4 µM
CC50 ([3]; RXF 631, read-out: Log10LC50 (converted)): > 100 µM
GI50 (KM12; [11]): 26.3 µM
CC50 (KM12; [12]): > 100 µM
GI50 (RXF 393; [11]): 38.9 µM
CC50 (RXF 393; [12]): > 100 µM
GI50 (MOLT-4; [11]): 32.4 µM
CC50 (MOLT-4; [12]): > 100 µM
GI50 (SNB-75; [11]): 25.7 µM
CC50 (SNB-75; [12]): > 100 µM
GI50 (A498; [11]): 16.6 µM
CC50 (A498; [12]): > 100 µM
GI50 (TK-10; [11]): 23.4 µM
CC50 (TK-10; [12]): 97.7 µM
GI50 (HCC 2998; [11]): 32.4 µM
CC50 (HCC 2998; [12]): > 100 µM
GI50 (SNB-19; [11]): 30.2 µM
CC50 (SNB-19; [12]): > 100 µM
GI50 (OVCAR-5; [11]): 38 µM
CC50 (OVCAR-5; [12]): > 100 µM
GI50 (NCI-H23; NCI-H23, read-out: Log10GI50 (converted)): 14.5 µM
CC50 (NCI-H23; NCI-H23, read-out: Log10LC50 (converted)): > 100 µM
GI50 (SR; [11]): 23.4 µM
CC50 (SR; [12]): > 100 µM
GI50 (SN12C; [11]): 67.6 µM
CC50 (SN12C; [12]): > 100 µM
GI50 (CAKI-1; [11]): 45.7 µM
CC50 (CAKI-1; [12]): > 100 µM
GI50 (HOP-62; [11]): 8.13 µM
CC50 (HOP-62; [12]): > 100 µM
GI50 (SK-MEL-2; [11]): 20.4 µM
CC50 (SK-MEL-2; [12]): > 100 µM
GI50 (U-251; [11]): 27.5 µM
CC50 (U-251; [12]): > 100 µM
GI50 (KM-20L2; [11]): 40.7 µM
CC50 (KM-20L2; [12]): > 100 µM
GI50 (HL-60(TB); [11]): 26.9 µM
CC50 (HL-60(TB); [12]): > 100 µM
GI50 (SK-MEL-28; [11]): 36.3 µM
CC50 (SK-MEL-28; [12]): > 100 µM
GI50 [4, 11]: 24.5 µM
CC50 [4, 12]: > 100 µM
GI50 (OVCAR-4; [11]): 30.2 µM
CC50 (OVCAR-4; [12]): > 100 µM
GI50 (CCRF-CEM; [11]): 38 µM
CC50 (CCRF-CEM; [12]): > 100 µM
GI50 (NCI-H226; [11]): 33.1 µM
CC50 (NCI-H226; [12]): > 100 µM
GI50 (HOP-18; [11]): 3.98 µM
CC50 (HOP-18; [12]): > 100 µM
GI50 (UACC-257; [11]): 28.2 µM
CC50 (UACC-257; [12]): > 100 µM
GI50 (SNB-78; [11]): 49 µM
CC50 (SNB-78; [12]): 100 µM
GI50 (NCI-H322M; [11]): 35.5 µM
CC50 (NCI-H322M; [12]): > 100 µM
GI50 (HCT-116; [11]): 36.3 µM
CC50 (HCT-116; [12]): > 100 µM
GI50 (COLO 205; [11]): 17.8 µM
CC50 (COLO 205; [12]): 100 µM
GI50 (HT-29; [11]): 31.6 µM
CC50 (HT-29; [12]): > 100 µM
GI50 (SK-MEL-5; [11]): 2.63 µM
CC50 (SK-MEL-5; [12]): 51.3 µM
GI50 (NCI-H522; [11]): 14.5 µM
CC50 (NCI-H522; [12]): > 100 µM
GI50 (M14; [11]): 25.1 µM
CC50 (M14; [12]): > 100 µM
GI50 (SK-OV-3; [11]): 23.4 µM
CC50 (SK-OV-3; [12]): > 100 µM
GI50 (HOP-92; [11]): 11.5 µM
CC50 (HOP-92; [12]): > 100 µM
GI50 (HCT-15; [11]): 26.9 µM
CC50 (HCT-15; [12]): > 100 µM
GI50 (NCI-H460; [11]): 20 µM
CC50 (NCI-H460; [12]): > 100 µM
GI50 (Malme-3M; [11]): 11.7 µM
CC50 (Malme-3M; [12]): > 100 µM
GI50 (A549; [11]): 26.9 µM
CC50 (A549; [12]): > 100 µM
IC50 [5]: 18.5 µM
GI50 (RPMI-8226; [11]): 24.5 µM
CC50 (RPMI-8226; [12]): > 100 µM
GI50 (XF498; [11]): 26.3 µM
CC50 (XF498; [12]): > 100 µM
GI50 (SF-268; [11]): 25.7 µM
CC50 (SF-268; [12]): > 100 µM
GI50 (DMS-114; [11]): 40.7 µM
CC50 (DMS-114; [12]): > 100 µM
GI50 (ACHN; [11]): 19.1 µM
CC50 (ACHN; [12]): > 100 µM

CC(C)[C@H](NC(=O)[C@H](CCCN=C(N)N)NC(=O)[C@@H](N)CC(=O)O)C(=O)N[C@@H](Cc1ccc(O)cc1)C(=O)N[C@H](C(=O)N[C@@H](Cc1cnc[nH]1)C(=O)N1CCC[C@H]1C(=O)N[C@@H](Cc1ccccc1)C(=O)O)C(C)C [[Val5] - ANGIOTENSIN II]
Ki [6]: 700 µM

O=CN/C=C/c1cc(O)ccc1O [ERBSTATIN]
GI50 (L1210 [7]): 3 µg/mL (≈ 16.7 µM)
GI50 [8]: 3 µg/mL (≈ 16.7 µM)
IC50 [9]: 3.07 µM
T/C (L1210 [10]): 155%
GI50 (A-431): 3 µg/mL (≈ 16.7 µM)

CO[C@H]1[C@@H](OC)C[C@H](C)[C@@H](OC)C2=CC(=O)C=C(NC(=O)/C(C)=C/C=C/[C@H](OC)[C@@H](OC(N)=O)/C(C)=C/[C@@H]1C)C2=O [HERBIMYCIN]
IC50 (MOLT-4): > 1 µM
IC50 (SR): > 1 µM
IC50 (HL-60(TB)): > 1 µM
IC50 (CCRF-CEM): > 1 µM
IC50 (K562): 0.095 µM
IC50 (RPMI-8226): > 1 µM
